Source: patent US20250134953A1, “COMPOSITIONS FOR TREATING AUTOIMMUNE ARTHRITIS” (DEVINTEC SAGL, priority 2021, published 2025)

Columns and labels:
[1] = tested on: IL-17, IL-6, IL-23, TNF-α and IL-1β; settings: CAIA mice; prednisolone at high doses (group 14); combination groups 13 and 15; FIGS. 1-2
Experimental: The mAb cocktail contained three mAb (F10, A2, D8) of type IgG2a and one mAb (D1) of type IgG2b in equal amounts, directed to bovine CII (Arthrogen-CIA, Chondrex) suspended in sterile PBS. All WT mice received intraperitnoeal i.p. injections of 8 mg/mouse of Arthrogen on day 0 and 50 ug/mouse of LPS from E. coli strain 0111B4 (Sigma, T 3382) on day 3 to synchronize the development of arthritis. All mice started to develop arthritis at day 4 and were sacrificed at day 14.
Animals from group A and B were separated in some the following subgroups, depending on the assay, and administered with the indicated compounds or combination of compounds: • 1. Sham+vehicle (negative control) (n=3) • 2. Sham+prednisolone 0.05 mg/kg (n=3) • 3. Sham+prednisolone 0.05 mg/kg +MD (50 mg acacia gum (AG) +70 mg pea protein (PP)+50 mg alpha-GOS) (n=3) • 4. Sham+prednisolone 0.2 mg/kg (n=3) • 5. Sham+prednisolone 0.2 mg/kg+MD (50 mg AG+70 mg PP+50 mg alpha-GOS) (n=3) • 6. Sham+prednisolone 1 mg/kg (n=3) • 7. Sham+prednisolone 1 mg/kg+MD (50 mg AG+70 mg PP+50 mg alpha-GOS) (n=3) • 8. Sham+MD (n=3) • 9. CAIA+vehicle (positive control) (n=6) • 10. CAIA+prednisolone 0.05 mg/kg (n=6) • 11. CAIA+prednisolone 0.05 mg/kg+MD (50 mg AG+70 mg PP+50 mg alpha-GOS) (n=6) • 12. CAIA+prednisolone 0.2 mg/kg (n=6) • 13. CAIA+prednisolone 0.2 mg/kg (n=6)+MD (50 mg AG+70 mg PP+50 mg alpha-GOS) (n=6) • 14. […]

[2] = tested on: collagen antibody-induced arthritis (CAIA) mice; test: Histological score of ankle joints (hind legs) in CAIA mice; format: in vivo, Male BALB/c mice; settings: oral gavage
Experimental: (§1) Each compound (140 mg of pea protein; 100 mg of Acacia gum; and 100 mg of alpha-Glucooligosaccharide) were administered in a PBS solution via oral gavage daily, from day 0 to day 14 in mice of Group A, and from day 4 to day 14 in mice of Group B. Prednisolone was administered via oral gavage at the doses of 0.05, 0.2 and 1 mg/kg as disclosed in Oosten, L., Helsen, M., Saxne, T. et al. “Synergistic protection against cartilage destruction by low dose prednisolone and interleukin-10 in established murine collagen arthritis”. Inflamm. Res. 48, 48-55, 1999.
(§2) The animals were divided into the following two groups: • Group A: the animals were administered with the therapeutic compounds from day 0 to day 14. • Group B: the animals were administered with the therapeutic compounds from day 4 to day 14.
(§3) Sham+vehicle (negative control) (n=3) • 2. Sham+prednisolone 0.05 mg/kg (n=3) • 3. […] Sham+prednisolone 0.2 mg/kg (n=3) • 5. […] Sham+prednisolone 1 mg/kg (n=3) • 7. […] Sham+MD (n=3) • 9. CAIA+vehicle (positive control) (n=6) • 10. CAIA+prednisolone 0.05 mg/kg (n=6) • 11. […] CAIA+prednisolone 0.2 mg/kg (n=6) • 13. […] CAIA+prednisolone 1 mg/kg (n=6) • 15. […] CAIA+140 mg Pea Protein (n=6) • 18. […] CAIA+200 mg Pea Protein (n=6) • 20. […] CAIA+70 mg Pea Protein (n=6)
Histological analysis was carried out as previously described (Balkrishna A, et al., supra; Mengdi et al., “A novel dexamethasone-loaded liposome alleviates rheumatoid arthritis in rats”; International Journal of Pharmaceutics; 2018; vol. 540(1-2); pp. 57-64) and indicating score analysis of the RA disease-associated lesions such as the moderately enlarged synovial membrane, hyperplastic synovium, the presence of inflammation and bone and cartilage erosion on a 0-4 scale as follows: 0=normal; 1=mild, slight swelling; 2=moderate swelling; 3=severe swelling; 4=maximally inflamed; […].
Histopathological analysis of the CAIA mice hind legs was performed following fourteen days of treatment. Ankle-joints analysis of the CAIA mice was performed indicating the development of arthritis disease-associated lesions such as the moderately enlarged synovial membrane, hyperplastic synovium, increased synovial vascularity, the presence of inflammation and, bone and cartilage erosion.

[3] = tested on: collagen antibody-induced arthritis (CAIA) mice; test: Radiological score (X-ray) of ankle joints in CAIA mice; format: in vivo, Male BALB/c mice; settings: oral gavage, score 0-3
Experimental: as §1, §2, §3
Radiological analysis was carried out using X-ray technique, and radio-logical scoring (level: 0=Normal; 1=Slight; 2=Moderate and 3=Severe) was calculated considering different parameters such as periosteal reaction/hypertrophy, bone erosion, soft tissue swelling, narrowed joint space and osteoporosis in the ankle-joints, as described in Balkrishna A, et al., “Herbo-mineral formulation ‘Ashwashila’ attenuates rheumatoid arthritis symptoms in collagen-antibody-induced arthritis (CAIA) mice model” Sci Rep., 2019; vol. 9(1); pp. 8025.

[4] = group A (dosed day 0 to day 14), subgroup 10A: prednisolone 0.05 mg/kg
[5] = group A (dosed day 0 to day 14), subgroup 12A: prednisolone 0.2 mg/kg
[6] = group A (dosed day 0 to day 14), subgroup 14A: prednisolone 1 mg/kg
[7] = group B (dosed day 4 to day 14), subgroup 10B: prednisolone 0.05 mg/kg
[8] = group B (dosed day 4 to day 14), subgroup 12B: prednisolone 0.2 mg/kg
[9] = group B (dosed day 4 to day 14), subgroup 14B: prednisolone 1 mg/kg

## C[C@]12C=CC(=O)C=C1CC[C@@H]1[C@@H]2[C@@H](O)C[C@@]2(C)[C@H]1CC[C@]2(O)C(=O)CO [prednisolone]
[1]
  cytokine levels (IL-17, IL-6, IL-23, TNF-α and IL-1β) in arthritic hind paws: significantly reduced the expressions of the aforementioned cytokines
[2]; [4]
  Histological score, MEAN: 1.8
[2]; [5]
  Histological score, MEAN: 1.3
[2]; [6]
  Histological score, MEAN: 1.1
[2]; [7]
  Histological score, MEAN: 2.4
[2]; [8]
  Histological score, MEAN: 1.8
[2]; [9]
  Histological score, MEAN: 1.9
[3]; [4]
  Radiological score, MEAN: 2.3
[3]; [5]
  Radiological score, MEAN: 1.8
[3]; [6]
  Radiological score, MEAN: 1.7
[3]; [7]
  Radiological score, MEAN: 2.6
[3]; [8]
  Radiological score, MEAN: 1.9
[3]; [9]
  Radiological score, MEAN: 1.8
